# Key:
# [1] = molecular target: T1, recombinant human GBA1 (rhGBA1) (Homo sapiens, UniProt P04062, R534H); experiment: fluorogenic substrate assay (4-MU-β-D-Glu hydrolysis), rhGBA1
# T1 sequence (P04062 40-536 R534H): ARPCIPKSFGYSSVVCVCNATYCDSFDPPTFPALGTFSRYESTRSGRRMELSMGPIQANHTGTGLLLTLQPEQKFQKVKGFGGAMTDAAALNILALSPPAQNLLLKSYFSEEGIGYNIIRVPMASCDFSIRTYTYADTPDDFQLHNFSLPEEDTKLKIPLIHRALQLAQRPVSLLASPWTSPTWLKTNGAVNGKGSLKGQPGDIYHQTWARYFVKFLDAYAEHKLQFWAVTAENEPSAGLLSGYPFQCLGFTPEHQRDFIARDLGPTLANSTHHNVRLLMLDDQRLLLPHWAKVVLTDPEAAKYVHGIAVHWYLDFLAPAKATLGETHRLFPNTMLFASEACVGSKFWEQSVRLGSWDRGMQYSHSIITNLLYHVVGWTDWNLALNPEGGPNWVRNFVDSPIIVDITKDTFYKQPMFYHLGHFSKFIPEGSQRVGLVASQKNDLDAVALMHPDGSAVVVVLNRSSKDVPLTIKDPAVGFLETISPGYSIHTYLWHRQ
# Procedure: (§1) Next, all new compounds were screened on their GBA1/GBA2/GBA3 inhibitory potency in a fluorogenic substrate assay (enzyme‐mediated hydrolysis of the fluorogenic substrate, 4‐methylumbelliferyl β‐D‐glucopyranoside; 4‐MU‐β‐D‐Glu). […] The IC50 values were determined after incubation of each individual compound with either recombinant human GBA1 (rhGBA1) or lysates of HEK293T cells overexpressing GBA2 or GBA3.
# (§2) All assays were performed in 96-well plates (Greiner, black, flat-bottomed) at 37 °C. For GBA1, 3.5 ng of rhGBA1 (Imiglucerase,
# (§3) Sanofi Genzyme) was dissolved in 12.5 μL McIlvaine buffer (150 mM citric acid-Na2HPO4, pH 5.2), supplemented with 0.1%
# (§4) (v/v) Triton X-100, and 0.2% (w/v) sodium taurocholate, 0.1% (w/v) bovine serum albumin (BSA). Lysates of GBA1/GBA2 KO
# (§5) HEK293T cells overexpressing GBA2 or GBA3 were prepared by sonication on ice with Polytron PT 1300D son icator
# (§6) (Kinematica) in potassium phosphate buffer (25 mM K2HPO4/KH2PO4, pH 6.5, supplemented with 0.1% (v/v) Triton X-100 and protease inhibitor cocktail (EDTA-free, Roche)). The lysates were diluted to 12.5 μL in McIlvaine buffer (150 mM, pH 5.8 for
# (§7) GBA2 or pH 6.0 for GBA3) supplemented with 0.1% (w/v) bovine serum albumin (BSA). The enzymes were incubated with 12.5
# (§8) μL solution of inhibitors in McIlvaine buffer (150 mM, pH appropriate for each enzyme, final concentration 1% DMSO) at 37 °C
# (§9) for 30 minutes (-configured aziridines and ABP 3) or 3 hours (epoxides and -configured aziridines). This was followed by
# (§10) incubation of the samples with 100 μL of fluorogenic substrate mixtures for 30 minutes. The substrate mixtures diluted in
# (§11) McIlvaine buffer (supplemented with 0.1% (w/v) BSA) at optimal pH for each enzyme were as follows: GBA1, 3.75 mM 4-MU-
# (§12) -D-glucopyranoside (Glycosynth) at pH 5.2, supplemented with 0.2% (w/v) sodium taurocholate, 0.1% (v/v) Triton X-100, 0.1%
# (§13) (w/v) bovine serum albumin (BSA); GBA2, 4-MU--D-glucopyranoside (3.75 mM) at pH 5.8; GBA3, 4-MU--D-glucopyranoside
# (§14) (3.75 mM) at pH 6.0. After stopping the enzyme reaction with 200 μL 1 M NaOH-glycine (pH 10.3), 4-methylumbelliferone
# (§15) fluorescence was measured with a fluorimeter LS55 (Perkin Elmer) with λEX 366 nm and λEM 445 nm. Enzyme activities were
# (§16) determined by subtraction of background (measured for incubations without enzyme), normalized with enzyme activity of the
# (§17) control sample (vehicle incubation) and curve-fitted to inhibitor concentrations using GraphPad Prism 9.0 software by the
# (§18) [inhibitor] vs. response - variable slope (four parameters) method to determine IC 50 values.
# (§19) values from triplicate or duplicate experiments (n = 3 biological replicates) and error ranges indicate standard deviation (SD).
# GBA2 = molecular target: T2, GBA2 (Homo sapiens, UniProt Q9HCG7)
# T2 sequence (Q9HCG7 1-927): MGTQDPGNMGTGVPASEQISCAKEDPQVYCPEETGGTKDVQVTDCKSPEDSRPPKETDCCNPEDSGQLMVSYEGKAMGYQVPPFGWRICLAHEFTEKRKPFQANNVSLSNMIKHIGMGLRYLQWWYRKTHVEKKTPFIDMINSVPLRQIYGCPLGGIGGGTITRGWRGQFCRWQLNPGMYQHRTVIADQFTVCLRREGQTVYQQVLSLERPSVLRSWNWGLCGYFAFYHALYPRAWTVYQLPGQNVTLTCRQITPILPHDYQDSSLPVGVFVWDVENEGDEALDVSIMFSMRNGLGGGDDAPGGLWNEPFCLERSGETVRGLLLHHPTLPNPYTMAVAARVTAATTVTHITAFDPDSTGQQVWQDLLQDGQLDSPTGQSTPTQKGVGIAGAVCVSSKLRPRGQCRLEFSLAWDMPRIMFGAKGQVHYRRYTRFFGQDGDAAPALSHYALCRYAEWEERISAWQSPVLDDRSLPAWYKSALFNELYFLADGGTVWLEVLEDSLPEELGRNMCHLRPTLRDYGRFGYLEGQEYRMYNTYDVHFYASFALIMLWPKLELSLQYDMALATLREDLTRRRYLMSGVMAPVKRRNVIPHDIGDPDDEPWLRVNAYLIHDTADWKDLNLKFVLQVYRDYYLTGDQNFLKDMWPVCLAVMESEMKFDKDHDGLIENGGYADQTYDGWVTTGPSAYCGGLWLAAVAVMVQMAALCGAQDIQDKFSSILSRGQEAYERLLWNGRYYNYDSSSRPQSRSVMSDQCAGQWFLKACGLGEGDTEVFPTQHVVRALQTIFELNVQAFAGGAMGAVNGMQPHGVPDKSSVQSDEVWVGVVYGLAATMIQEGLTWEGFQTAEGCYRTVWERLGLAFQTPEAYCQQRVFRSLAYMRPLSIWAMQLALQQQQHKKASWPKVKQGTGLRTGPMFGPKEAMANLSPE
# Procedure: as §1, §2, §3, §4, §5, §6, §7, §8, §9, §10, §11, §12, §13, §14, §15, §16, §17, §18, §19
# GBA3 = molecular target: T3, GBA3 (Homo sapiens, UniProt Q9H227)
# T3 sequence (Q9H227 1-469): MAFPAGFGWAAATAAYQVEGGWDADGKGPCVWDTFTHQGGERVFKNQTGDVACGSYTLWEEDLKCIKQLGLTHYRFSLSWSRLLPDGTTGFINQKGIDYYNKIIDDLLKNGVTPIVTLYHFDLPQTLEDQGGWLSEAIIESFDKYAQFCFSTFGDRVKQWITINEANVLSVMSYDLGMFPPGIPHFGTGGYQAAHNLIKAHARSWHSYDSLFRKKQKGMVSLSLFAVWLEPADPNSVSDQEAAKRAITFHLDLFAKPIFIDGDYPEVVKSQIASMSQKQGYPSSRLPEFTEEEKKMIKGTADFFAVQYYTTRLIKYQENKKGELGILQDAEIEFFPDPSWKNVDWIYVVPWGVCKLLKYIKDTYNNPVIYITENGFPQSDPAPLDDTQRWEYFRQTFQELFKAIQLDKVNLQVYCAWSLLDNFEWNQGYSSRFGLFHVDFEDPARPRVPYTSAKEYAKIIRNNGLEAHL
# Procedure: as §1, §2, §3, §4, §5, §6, §7, §8, §9, §10, §11, §12, §13, §14, §15, §16, §17, §18, §19
# [2] = system: endogenous GBA1 and overexpressed human GBA2 and GBA3; experiment: ABP labeling (ABPP) in lysates of GBA2/GBA3 overexpressing HEK293T cells, selectivity pattern; type: binding; conditions: pH 6.0, 30 min
# Procedure: As a negative control, lysates of HEK293T cells with knocked‐out (KO) expression of GBA1 and GBA2 were incubated with a high concentration of each ABP. The observed selectivity patterns of most compounds were in line with the results of the fluorogenic substrate assay except for 50, which labeled GBA1 less potently than expected. […] For instance, besides labeling GBA2 and GBA3 (104.6 kDa and 53.6 kDa respectively), ABP 5 labels three major off‐target proteins (~45 kDa, ~55 kDa, and ~65 kDa), and these bands appear also in the experiments with the other deoxygenated ABPs (Figure 3B). Possibly, the deoxygenated ABPs are more hydrophobic compared to ABPs 1 and 3, causing them to more readily associate with hydrophobic protein patches and subsequently engage in reactions.
# described previously.6,16
# protease inhibitor cocktail (EDTA-free, Roche)).
# The enzymes were incubated with 12.5
# The substrate mixtures diluted in
# with BODIPY fluorescent ABP 2.
Compound,IC50 [1],IC50 (GBA2),IC50 (GBA3),target glucosidases labeled by the ABP [2]
CN1/C(=C/C=C/C=C/C2=[N+](CCCCCC(=O)NCc3cn(C[C@@H]4[C@@H](O)[C@H](O)[C@@H](O)[C@@H]5O[C@H]45)nn3)c3ccccc3C2(C)C)C(C)(C)c2ccccc21 [Compound 3],42 ± 4 nM,> 15000 nM,> 15000 nM,
CN1/C(=C/C=C/C=C/C2=[N+](CCCCCC(=O)NCc3cn(CCCCCCCCN4[C@@H]5[C@H](CO)C[C@H](O)C[C@@H]54)nn3)c3ccccc3C2(C)C)C(C)(C)c2ccccc21 (stereo partly drawn) [Compound 5],32000 ± 3000 nM,230 ± 10 nM,1230 ± 80 nM,"GBA2 and, to a lesser extent, GBA3"
CN1/C(=C/C=C/C=C/C2=[N+](CCCCCC(=O)NCc3cn(CCCCCCCCN4[C@@H]5[C@H](CO)C[C@H](O)[C@@H](O)[C@@H]54)nn3)c3ccccc3C2(C)C)C(C)(C)c2ccccc21 (stereo partly drawn) [Compound 4],260 ± 10 nM,240 ± 30 nM,260 ± 60 nM,label all three target glucosidases
CN1/C(=C/C=C/C=C/C2=[N+](CCCCCC(=O)NCc3cn(CCCCCCCCN4[C@@H]5[C@H](CO)[C@@H](O)[C@H](O)[C@@H](O)[C@@H]54)nn3)c3ccccc3C2(C)C)C(C)(C)c2ccccc21 (stereo partly drawn) [Compound 1],0.54 ± 0.21 nM,145 ± 26 nM,31 ± 5 nM,modifies all three GBAs

# Reference: article PMC11639629, “Synthesis and Biological Evaluation of Deoxycyclophellitols as Human Retaining β‐Glucosidase Inhibitors” (Chemistry (Weinheim an Der Bergstrasse, Germany), 2024)
